From patent US20200024278A1, “COMPOSITION COMPRISING ANTIBIOTIC COMPOUND AND AN HETEROCYCLIC COMPOUND AND THEIR USE IN PREVENTING OR TREATING BACTERIAL INFECTIONS” (MUTABILIS, priority 2016, published 2020)

Key:
Experiment in all cases: MIC, broth microdilution (CLSI), substance alone or ATB combined with compound at 4 or 8 μg/mL
ECO 190317 = format: cell-based, E. coli; conditions: ECO 190317; for MIC ATB combined with Example: Example @8 μg/ml
How it was run: (§1)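 Potentiation format: antibiotic dilution series run with test compound held at 4 or 8 μg/mL, alongside compound-alone MICs. Broth microdilution per CLSI in ca-MHB, 16-20 h at 35° C.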

ECO UFR39 = format: cell-based, E. coli; conditions: ECO UFR39; for MIC ATB combined with Example: Example @8 μg/ml; for MIC ATB combined with Example compound: compound @8 μg/ml
How it was run: as §1

KPN 6299 = format: cell-based, K. pneumoniae; conditions: for MIC ATB combined with Example: Example @8 μg/ml
How it was run: as §1

KPN BAA-1898 = format: cell-based, K. pneumoniae; conditions: KPN BAA-1898; for MIC ATB combined with Example: Example @8 μg/ml
How it was run: as §1

KPN UFR42 = format: cell-based, K. pneumoniae; conditions: KPN UFR42; for MIC ATB combined with Example: Example @8 μg/ml; for MIC ATB combined with Example compound: compound @8 μg/ml
How it was run: as §1

ECL P99 = format: cell-based, E. cloacae; conditions: ECL P99; for MIC ATB combined with Example: Example @8 μg/ml
How it was run: as §1

PAE 105250 = format: cell-based, P. aeruginosa; conditions: PAE 105250; for MIC ATB combined with Example: Example @8 μg/ml; for MIC ATB combined with Example compound: compound @8 μg/ml
How it was run: as §1

PAE UFR48 = format: cell-based, P. aeruginosa; conditions: PAE UFR48; for MIC ATB combined with Example: Example @8 μg/ml; for MIC ATB combined with Example compound: compound @8 μg/ml
How it was run: as §1

PAE UFR90 = format: cell-based, P. aeruginosa; conditions: PAE UFR90; for MIC ATB combined with Example: Example @8 μg/ml; for MIC ATB combined with Example compound: compound @8 μg/ml
How it was run: as §1

SAU 29213 = format: cell-based, S. aureus; conditions: for MIC ATB combined with Example / MIC ATB combined with Example compound: SAU 29213; for MIC ATB combined with Example: Example @8 μg/ml; for MIC ATB combined with Example compound: compound @8 μg/ml
How it was run: as §1

SPN 49619 = format: cell-based, S. pneumoniae; conditions: SPN 49619; for MIC ATB combined with Example: Example @8 μg/ml; for MIC ATB combined with Example compound: compound @8 μg/ml
How it was run: as §1

ABA UFR154 = format: cell-based, A. baumannii; conditions: Acinetobacter baumannii, substance alone, read-out: MIC
How it was run: as §1

ABA UFR155 = format: cell-based, A. baumannii; conditions: Acinetobacter baumannii, substance alone, read-out: MIC
How it was run: as §1

[1] = Escherichia coli, substance alone, read-out: MIC
[2] = Pseudomonas aeruginosa, substance alone, read-out: MIC

MIC ATB combined with Example (ECO 190317; ATB ATM): <0.031 µg/mL
MIC ATB combined with Example (ECO 190317; ATB FEP): <0.031 µg/mL
MIC ATB combined with Example (ECO 190317; ATB FOS): <0.125 µg/mL
MIC ATB combined with Example (ECO 190317; ATB MEM): <0.031 µg/mL
MIC ATB combined with Example (ECO 190317; ATB PIP): <0.031 µg/mL
MIC (ECO 190317; [1]): 1 µg/mL
MIC ATB combined with Example compound (ECO 190317; MIC of CIP, compound @8 μg/ml): <0.031 µg/mL
MIC ATB combined with Example (ECO UFR39; ATB ATM): <0.031 µg/mL
MIC ATB combined with Example (ECO UFR39; ATB FEP): <0.031 µg/mL
MIC ATB combined with Example (ECO UFR39; ATB FOS): <0.125 µg/mL
MIC ATB combined with Example (ECO UFR39; ATB MEM): <0.031 µg/mL
MIC ATB combined with Example (ECO UFR39; ATB PIP): <0.031 µg/mL
MIC (ECO UFR39; [1]): 4 µg/mL
MIC ATB combined with Example compound (ECO UFR39; MIC of CIP): <0.031 µg/mL
MIC ATB combined with Example compound (ECO UFR39; MIC of CPO): <0.031 µg/mL
MIC ATB combined with Example (KPN 6299; ATB ATM): <0.031 µg/mL
MIC ATB combined with Example (KPN 6299; ATB FEP): <0.031 µg/mL
MIC ATB combined with Example (KPN 6299; ATB FOS): <0.125 µg/mL
MIC ATB combined with Example (KPN 6299; ATB MEM): <0.031 µg/mL
MIC ATB combined with Example (KPN 6299; ATB PIP): <=0.031 μg/mL
MIC ATB combined with Example compound (KPN 6299; MIC of CIP, compound @8 μg/ml): <=0.031 μg/mL
MIC ATB combined with Example (KPN BAA-1898; ATB ATM): <0.031 µg/mL
MIC ATB combined with Example (KPN BAA-1898; ATB FEP): <0.031 µg/mL
MIC ATB combined with Example (KPN BAA-1898; ATB FOS): <=0.125 μg/mL
MIC ATB combined with Example (KPN BAA-1898; ATB MEM): <=0.031 μg/mL
MIC ATB combined with Example (KPN BAA-1898; ATB PIP): <0.031 µg/mL
MIC (KPN BAA-1898; Klebsiella pneumoniae, BAA1898, substance alone, read-out: MIC): 8 µg/mL
MIC ATB combined with Example compound (KPN BAA-1898; MIC of CIP, compound @8 μg/ml): <0.031 µg/mL
MIC ATB combined with Example (KPN UFR42; ATB ATM): <0.031 µg/mL
MIC ATB combined with Example (KPN UFR42; ATB FEP): <0.031 µg/mL
MIC ATB combined with Example (KPN UFR42; ATB FOS): <0.125 µg/mL
MIC ATB combined with Example (KPN UFR42; ATB MEM): 0.5 µg/mL
MIC ATB combined with Example (KPN UFR42; ATB PIP): >32 µg/mL
MIC (KPN UFR42; Klebsiella pneumoniae, substance alone, read-out: MIC): 8 µg/mL
MIC ATB combined with Example compound (KPN UFR42; MIC of CIP): 32 µg/mL
MIC ATB combined with Example compound (KPN UFR42; MIC of CPO): <0.031 µg/mL
MIC ATB combined with Example (ECL P99; ATB ATM): <0.031 µg/mL
MIC ATB combined with Example (ECL P99; ATB FEP): <0.031 µg/mL
MIC ATB combined with Example (ECL P99; ATB FOS): <0.125 µg/mL
MIC ATB combined with Example (ECL P99; ATB MEM): <0.031 µg/mL
MIC ATB combined with Example (ECL P99; ATB PIP): <0.031 µg/mL
MIC (ECL P99; Enterobacter cloacae, substance alone, read-out: MIC): 4 µg/mL
MIC ATB combined with Example compound (ECL P99; MIC of CIP, compound @8 μg/ml): <0.031 µg/mL
MIC ATB combined with Example (PAE 105250; ATB ATM): 16 µg/mL
MIC ATB combined with Example (PAE 105250; ATB FEP): 8 µg/mL
MIC ATB combined with Example (PAE 105250; ATB FOS): >128 µg/mL
MIC ATB combined with Example (PAE 105250; ATB MEM): 2 µg/mL
MIC ATB combined with Example (PAE 105250; ATB PIP): 32 µg/mL
MIC ATB combined with Example compound (PAE 105250; MIC of CIP): 0.125 µg/mL
MIC ATB combined with Example compound (PAE 105250; MIC of CPO): 16 µg/mL
MIC (PAE 105250; [2]): > 32 µg/mL
MIC ATB combined with Example (PAE UFR48; ATB ATM): 8 µg/mL
MIC ATB combined with Example (PAE UFR48; ATB FEP): 32 µg/mL
MIC ATB combined with Example (PAE UFR48; ATB FOS): 32 µg/mL
MIC ATB combined with Example (PAE UFR48; ATB MEM): 0.25 µg/mL
MIC ATB combined with Example (PAE UFR48; ATB PIP): 16 µg/mL
MIC ATB combined with Example compound (PAE UFR48; MIC of CIP): 4 µg/mL
MIC ATB combined with Example compound (PAE UFR48; MIC of CPO): >32 µg/mL
MIC (PAE UFR48; [2]): > 32 µg/mL
MIC ATB combined with Example (PAE UFR90; ATB ATM): 4 µg/mL
MIC ATB combined with Example (PAE UFR90; ATB FEP): 2 µg/mL
MIC ATB combined with Example (PAE UFR90; ATB FOS): 8 µg/mL
MIC ATB combined with Example (PAE UFR90; ATB MEM): 1 µg/mL
MIC ATB combined with Example (PAE UFR90; ATB PIP): 16 µg/mL
MIC ATB combined with Example compound (PAE UFR90; MIC of CIP): 1 µg/mL
MIC ATB combined with Example compound (PAE UFR90; MIC of CPO): 2 µg/mL
MIC (PAE UFR90; [2]): > 32 µg/mL
MIC ATB combined with Example (SAU 29213; ATB ATM): >32 µg/mL
MIC ATB combined with Example (SAU 29213; ATB FEP): 0.5 µg/mL
MIC ATB combined with Example (SAU 29213; ATB FOS): <=0.125 μg/mL
MIC ATB combined with Example (SAU 29213; ATB MEM): <=0.031 μg/mL
MIC ATB combined with Example (SAU 29213; ATB PIP): 0.125 µg/mL
MIC ATB combined with Example compound (SAU 29213; MIC of CIP): <=0.031 μg/mL
MIC ATB combined with Example compound (SAU 29213; MIC of CLI): <0.0010 µg/mL
MIC ATB combined with Example compound (SAU 29213; MIC of CPO): <0.031 µg/mL
MIC ATB combined with Example compound (SAU 29213; MIC of DAP): <=0.0020 μg/mL
MIC ATB combined with Example compound (SAU 29213; MIC of ERY): <0.0020 µg/mL
MIC ATB combined with Example compound (SAU 29213; MIC of LZD): <0.0078 µg/mL
MIC ATB combined with Example compound (SAU 29213; MIC of RIF): 0.002 µg/mL
MIC ATB combined with Example compound (SAU 29213; MIC of SYN): 0.125 µg/mL
MIC ATB combined with Example compound (SAU 29213; MIC of VAN): <0.0039 µg/mL
MIC (SAU 29213; Staphylococcus aureus, substance alone, SAU 29213 (MSSA 29213), read-out: MIC): 8 µg/mL
MIC ATB combined with Example (SPN 49619; ATB ATM): >32 µg/mL
MIC ATB combined with Example (SPN 49619; ATB FEP): <=0.031 μg/mL
MIC ATB combined with Example (SPN 49619; ATB FOS): 8 µg/mL
MIC ATB combined with Example (SPN 49619; ATB MEM): <=0.031 μg/mL
MIC ATB combined with Example (SPN 49619; ATB PIP): 0.5 µg/mL
MIC ATB combined with Example compound (SPN 49619; MIC of CIP): <0.031 µg/mL
MIC ATB combined with Example compound (SPN 49619; MIC of CLI): 0.0078 µg/mL
MIC ATB combined with Example compound (SPN 49619; MIC of CPO): <=0.031 μg/mL
MIC ATB combined with Example compound (SPN 49619; MIC of DAP): 0.125 µg/mL
MIC ATB combined with Example compound (SPN 49619; MIC of ERY): 0.0078 µg/mL
MIC ATB combined with Example compound (SPN 49619; MIC of LZD): 0.25 µg/mL
MIC ATB combined with Example compound (SPN 49619; MIC of RIF): 0.002 µg/mL
MIC ATB combined with Example compound (SPN 49619; MIC of SYN): 0.25 µg/mL
MIC ATB combined with Example compound (SPN 49619; MIC of VAN): 0.031 µg/mL
MIC (SPN 49619; Streptococcus pneumoniae, substance alone, read-out: MIC): 16 µg/mL
MIC (ABA UFR154): > 32 µg/mL
MIC (ABA UFR155): > 32 µg/mL
SMILES: O=C1N2CC(n3cccn3)=CC(C2)N1OS(=O)(=O)[O-].[Na+] (stereo not drawn) [Example 11, sodium (7-oxo-3-pyrazol-1-yl-1,6-diazabicyclo[3.2.1]oct-3-en-6-yl) sulfate]
